Reference: patent publication EP0557876A1, “Use of xanthine derivatives for the treatment of muscle damage subsequent to complete interruption of blood circulation” (HOECHST AKTIENGESELLSCHAFT, priority 1992, dated 1993)
Marks after values point to notes of the source that are not given here.

System: Muskelfasern
Experiment: Muscle fibre diameter after 3 h tourniquet interruption of blood circulation in a hind limb and subsequent reperfusion
Assay type: in vivo, Cercopithecus pygerythrus
Set-up: durchschnittliche Durchmesser Muskelfaser Typ1 / durchschnittliche Durchmesser Muskelfaser Typ2a: unit not given here
Protocol: Zwei Gruppen von acht erwachsenen, männlichen südafrikanischen Meerkatzen (Cercopithecus pygerythrus) werden untersucht. Die Anasthäsie der Tiere erfolgt intramuskulär mit 15 mg/kg Ketamin (Warner Lambert) und wird intravenös mit Thiopenton Natrium (25 mg/kg, May und Baker) aufrecht erhalten. Eine hintere Extremität wird durch eine pneumatische Abschnürbinde und eine Esmarch Bandage blutleer gemacht. Die Unterbrechung der Blutzirklation wird drei Stunden aufrechterhalten, dann wird die Unterbrechung beendet und die Tiere können aus der Betäubung aufwachen. Die Entnahme der Muskelgewebeproben erfolgt unter Betäubung (15 mg/kg Ketamin).
20 mg/kg Verbindung 1 wird intravenös über 30 Minuten den Tieren appliziert bevor die Unterbrechung der Blutzirkulation erfolgt.
Das entnommene Muskelgewebe wird sofort in Isopentan bei -183° C eingefroren. Die Präparation des Muskelgewebes erfolgt wie bei Dubowitz (Dubowitz et al. Muscle Biopsy A practical Approach, London, Bailliere Tindall, 1985, S. 82 - 128) beschrieben. Mikroskopische Schnitte werden mit Muskelfaser-ATPase für 30 Minuten bei pH 9,4 gefärbt, eingebettet und im Lichtmikroskop untersucht. Die Durchmesser von wenigstens 200 Muskelfasern werden mit einem computerisierten Video-Image-Analysator ausgewertet.
Der durchschnittliche Durchmesser jedes Muskelfasertyps wird in Tabelle 1 beschrieben.

[1] = Unterbrechung der Blutzirkulation, lower part of Tabelle 1 (12/18/24 h series), 20 mg/kg i.v.
[2] = Unterbrechung der Blutzirkulation, upper part of Tabelle 1 (3/6 h series), 20 mg/kg i.v.
[3] = Vor Unterbrechung der Blutzirkulation, lower part of Tabelle 1 (12/18/24 h series), 20 mg/kg i.v. over 30 min before interruption
[4] = Vor Unterbrechung der Blutzirkulation, upper part of Tabelle 1 (3/6 h series), 20 mg/kg i.v. over 30 min before interruption

## CCOCn1cnc2c1c(=O)n(CCCCC(C)(C)O)c(=O)n2C [Verbindung 1, 7-Ethoxymethyl-1-(5-hydroxy-5-methylhexyl)-3-methylxanthin]
Nach 3 Stunden, 20 mg/kg i.v.
  durchschnittliche Durchmesser Muskelfaser Typ1: 39,89*
  durchschnittliche Durchmesser Muskelfaser Typ2a: 48,55*
Nach 6 Stunden, 20 mg/kg i.v.
  durchschnittliche Durchmesser Muskelfaser Typ1: 43,42*
  durchschnittliche Durchmesser Muskelfaser Typ2a: 53,37*
Nach 12 Stunden, 20 mg/kg i.v.
  durchschnittliche Durchmesser Muskelfaser Typ1: 35,79
  durchschnittliche Durchmesser Muskelfaser Typ2a: 42,28*
Nach 18 Stunden, 20 mg/kg i.v.
  durchschnittliche Durchmesser Muskelfaser Typ1: 34,68
  durchschnittliche Durchmesser Muskelfaser Typ2a: 41,31
Nach 24 Stunden, 20 mg/kg i.v.
  durchschnittliche Durchmesser Muskelfaser Typ1: 33,00
  durchschnittliche Durchmesser Muskelfaser Typ2a: 40,24
[1]
  durchschnittliche Durchmesser Muskelfaser Typ1: 33,21
  durchschnittliche Durchmesser Muskelfaser Typ2a: 38,69
[2]
  durchschnittliche Durchmesser Muskelfaser Typ1: 36,28
  durchschnittliche Durchmesser Muskelfaser Typ2a: 44,75
[3]
  durchschnittliche Durchmesser Muskelfaser Typ1: 36,50
  durchschnittliche Durchmesser Muskelfaser Typ2a: 45,09
[4]
  durchschnittliche Durchmesser Muskelfaser Typ1: 36,50
  durchschnittliche Durchmesser Muskelfaser Typ2a: 45,09
Nach 18 - 24 Stunden Wiederdurchblutung, 20 mg/kg i.v.
  Schwellung der Muskelfasern vom Typ 1 und 2a: signifikant verringerte Schwellung
